Results: ChEMBL document CHEMBL3351775, “Design, synthesis and anti-HIV evaluation of novel diarylnicotinamide derivatives (DANAs) targeting the entrance channel of the NNRTI binding pocket through structure-guided molecular hybridization” (Eur J Med Chem, 2014)
Counter-ions that a name gives are not always drawn.

Legend:
[1] = system: Human immunodeficiency virus 1; assay: Antiviral activity against HIV1 RES056 expressing reverse transcriptase K103N + Y181C mutant infected in human MT4 cells assessed as inhibition of virus-induced […] after 5 days by MTT assay; format: functional, organism-based; details: Human immunodeficiency virus 1, RES056, MT4, 120 h
[2] = system: Human immunodeficiency virus 2; assay: Antiviral activity against HIV2 ROD infected in human MT4 cells assessed as inhibition of virus-induced […] after 5 days by MTT assay; format: functional, organism-based; details: Human immunodeficiency virus 2, ISOLATE ROD, MT4, 120 h
[3] = system: Human immunodeficiency virus 1; assay: Antiviral activity against HIV1 3B infected in human MT4 cells assessed as inhibition of virus-induced […] after 5 days by MTT assay; format: functional, organism-based; details: Human immunodeficiency virus 1, 3B, MT4, 120 h
[4] = target: Human immunodeficiency virus type 1 reverse transcriptase (Human immunodeficiency virus 1, UniProt Q72547); assay: Inhibition of HIV1 reverse transcriptase assessed as reduction in biotin-dUTP incorporation using poly(rA)-oligo(dT) as template/primer and digoxigenin-/biotin-labeled dUTP nucleotides incubated for 1 hr
in vitro = details: human, MT4 cells, mock-infected (CC50) and HIV1 3B infected (EC50)
Description: Selectivity index, ratio of CC50 for mock-infected human MT4 cells to EC50 for HIV1 3B infected in human MT4 cells

[5] = Cytotoxicity against mock-infected human MT4 cells after 5 days by MTT assay; format: cell-based

| Structure (SMILES) | EC50 [1] [µM] | EC50 [2] [µM] | EC50 [3] [µM] | IC50 [4] [µM] | selectivity ratio (in vitro) | CC50 at 120 h [5] [µM] |
| --- | --- | --- | --- | --- | --- | --- |
| COC(CNC(=O)c1cnc(Nc2ccc(C#N)cc2)cc1Oc1c(C)cc(C)cc1C)OC | > 23.2 | > 23.2 | 0.28 | 1.89 | 83 | 23.2 |
| C=CCNC(=O)c1cnc(Nc2ccc(C#N)cc2)cc1Oc1c(C)cc(C#N)cc1C | > 207 | > 207 | 0.24 | 2.85 | 625 | 207 |
| C#CCNC(=O)c1cnc(Nc2ccc(C#N)cc2)cc1Oc1c(C)cc(C#N)cc1C | > 167 | > 167 | 0.24 | 1.29 | 703 | 167 |
| Cc1cc(C#N)cc(C)c1Oc1cc(Nc2ccc(C#N)cc2)ncc1C(=O)NCC1CCCO1 (stereo unspecified) | > 142 | > 142 | 3.1 | 10.9 | 46 | 143 |
| C#CCNC(=O)c1cnc(Nc2ccc(C#N)cc2)cc1Oc1c(C)cc(C)cc1C | 6.1 | > 73 | 0.029 | 0.07 | 2470 | 73 |
| Cc1cc(C#N)cc(C)c1Oc1cc(Nc2ccc(C#N)cc2)ncc1C(=O)NC1CC1 | > 231 | > 231 | 0.31 | 3.37 | 784 | 231 |
| Cc1cc(C#N)cc(C)c1Oc1cc(Nc2ccc(C#N)cc2)ncc1C(=O)NCCN(C)C | > 23.2 | > 7.5 | > 8.8 | 25.8 | ≤ 3 | 23.2 |
| Cc1cc(C#N)cc(C)c1Oc1cc(Nc2ccc(C#N)cc2)ncc1C(=O)NCC1CC1 | > 146 | > 146 | 0.85 | 4.25 | ≥ 175 | > 146 |
| Cc1cn([C@H]2C[C@H](N=[N+]=[N-])[C@@H](CO)O2)c(=O)[nH]c1=O [ZIDOVUDINE] | 0.01 | 0.0067 | – | – | – | > 93.5 |
| Nc1ccn([C@@H]2CS[C@H](CO)O2)c(=O)n1 [LAMIVUDINE] | – | 8.81 | 2.22 | – | > 39 | > 87.2 |
| Cc1ccnc2c1NC(=O)c1cccnc1N2C1CC1 [NEVIRAPINE] | > 7.58 | – | 0.31 | – | – | > 15 |
| Cc1cc(C)c(Oc2cc(Nc3ccc(C#N)cc3)ncc2C(=O)NC2CC2)c(C)c1 | > 25.8 | > 25.7 | 0.24 | 0.23 | 103 | 25.8 |
| COCCNC(=O)c1cnc(Nc2ccc(C#N)cc2)cc1Oc1c(C)cc(C)cc1C | 7.8 | > 24 | 0.067 | 0.52 | 359 | 24 |
| O=C1Nc2ccc(Cl)cc2[C@@](C#CC2CC2)(C(F)(F)F)O1 [EFAVIRENZ] | – | – | 0.0063 | – | – | > 6.34 |
| CC(C)Nc1cccnc1N1CCN(C(=O)c2cc3cc(NS(C)(=O)=O)ccc3[nH]2)CC1 [DELAVIRDINE MESYLATE] | > 43.8 | – | 0.66 | – | > 67 | > 43.8 |
| Cc1cc(C#N)cc(C)c1Oc1cc(Nc2ccc(C#N)cc2)ncc1C(=O)NCCC#N | > 65.8 | > 65.8 | 0.69 | 3.94 | 97 | 65.8 |
| Cc1cc(C)c(Oc2cc(Nc3ccc(C#N)cc3)ncc2C(=O)NCC2CCCO2)c(C)c1 (stereo unspecified) | > 274 | > 274 | 0.18 | 1.2 | > 1490 | > 274 |
| C=CCNC(=O)c1cnc(Nc2ccc(C#N)cc2)cc1Oc1c(C)cc(C)cc1C | 10.1 | > 21.5 | 0.058 | 0.17 | 364 | 21.3 |
| CCCNC(=O)c1cnc(Nc2ccc(C#N)cc2)cc1Oc1c(C)cc(C#N)cc1C | > 170 | > 170 | 0.54 | 4.14 | 321 | 170 |
| COCCNC(=O)c1cnc(Nc2ccc(C#N)cc2)cc1Oc1c(C)cc(C#N)cc1C | > 61 | > 61 | 1.74 | 11.3 | 35 | 61 |
| Cc1cc(C#N)cc(C)c1Oc1cc(Nc2ccc(C#N)cc2)ncc1C(N)=O | > 326 | > 326 | 0.05 | 0.08 | > 6200 | > 326 |
| O=c1[nH]cnc2c1ncn2[C@H]1CC[C@@H](CO)O1 [DIDANOSINE] | – | 44.9 | 23.2 | – | > 9 | > 212 |
| Cc1cc(C)c(Oc2cc(Nc3ccc(C#N)cc3)ncc2C(=O)NCCC#N)c(C)c1 | > 9.89 | > 9.9 | 0.033 | 0.19 | 310 | 9.89 |
| Cc1cc(C#N)cc(C)c1Oc1nc(Nc2ccc(C#N)cc2)nc(N)c1Br [ETRAVIRINE] | 0.025 | – | 0.0041 | – | > 1130 | > 4.59 |
| Cc1cc(C)c(Oc2cc(Nc3ccc(C#N)cc3)ncc2C(N)=O)c(C)c1 | > 336 | > 336 | 0.027 | 0.02 | > 12500 | > 336 |
| CCCNC(=O)c1cnc(Nc2ccc(C#N)cc2)cc1Oc1c(C)cc(C)cc1C | > 11.2 | > 11.1 | 0.055 | 0.32 | 335 | 18.9 |
| Cc1cc(C)c(Oc2cc(Nc3ccc(C#N)cc3)ncc2C(=O)NCC2CC2)c(C)c1 | > 30.6 | > 30.6 | 0.11 | 0.68 | 264 | 30.6 |
| COC(CNC(=O)c1cnc(Nc2ccc(C#N)cc2)cc1Oc1c(C)cc(C#N)cc1C)OC | > 90.6 | > 90.6 | 4.54 | 11.4 | 20 | 90.6 |
| Cc1cc(C)c(Oc2cc(Nc3ccc(C#N)cc3)ncc2C(=O)NCCN(C)C)c(C)c1 | > 16.7 | > 16.7 | 0.63 | 3.45 | 7 | 4.67 |
